Test results published in ChEMBL document CHEMBL4261580, “Novel antitumor compound optimized from natural saponin Albiziabioside A induced caspase-dependent apoptosis and ferroptosis as a p53 activator through the mitochondrial pathway” (Eur J Med Chem, 2018).
Active and inactive are the calls of the source. The calls are words filed in the database; no cut-off is given here.

Key:
[1] = test system: HCT-116; test: Induction of apoptosis in human HCT116 cells assessed as late apoptotic cells at 1.25 uM after 72 hrs by Annexin V-FITC/propidium iodide staining-based flow cytometric analysis (reference value: 1.08%); format: functional
[2] = test system: HCT-116; test: Induction of apoptosis in human HCT116 cells assessed as necrotic cells at 5 uM after 72 hrs by Annexin V-FITC/propidium iodide staining-based flow cytometric analysis (reference value: 0.76%); format: functional
[3] = test system: HCT-116; test: Induction of intracellular ROS generation in human HCT116 cells after 72 hrs by DCF-DA-dye based fluorescence microscopy; format: functional, cell-based
[4] = test system: HCT-116; test: Induction of apoptosis in human HCT116 cells assessed as viable cells at 5 uM after 72 hrs by Annexin V-FITC/propidium iodide staining-based flow cytometric analysis (reference value: 92.86%); format: functional; conditions: HCT-116, 72 h, read-out: Activity
[5] = test system: L02; test: Antiproliferative activity against human LO2 cells after 72 hrs by MTT assay; format: cell-based; conditions: L02, 72 h
[6] = test system: HCT-116; test: Induction of apoptosis in human HCT116 cells assessed as viable cells at 1.25 uM after 72 hrs by Annexin V-FITC/propidium iodide staining-based flow cytometric analysis (reference value: 92.86%); format: functional; conditions: HCT-116, 72 h, read-out: Activity
[7] = test system: HCT-116; test: Cytotoxicity against human HCT116 cells up to 5 uM after 72 hrs in presence of caspase inhibitor z-VAD-fmk by MTT assay; format: functional, cell-based
[8] = test system: HCT-116; test: Induction of intracellular ROS generation in human HCT116 cells at 0.31 uM after 72 hrs by DCF-DA-dye based fluorescence microscopy (reference value: 2.74%); format: functional
[9] = test system: HCT-116; test: Cytotoxicity against human HCT116 cells pretreated with Ca2+ followed by compound addition up to 5 uM measured after 72 hrs by MTT assay; format: functional, cell-based
[10] = test system: HCT-116; test: Cytotoxicity against human HCT116 cells pretreated with ferrostatin-1 followed by compound addition up to 5 uM measured after 72 hrs by MTT assay; format: functional, cell-based
[11] = target: Cellular tumor antigen p53 (Homo sapiens) (UniProt P04637); test: Activation of p53 in human HCT116 cells assessed as increase in cytochrome-c expression up to 5 uM after 48 hrs by Western blot analysis; format: cell-based
Cellular tumor antigen p53 (Homo sapiens), sequence (P04637 whole entry, looked up): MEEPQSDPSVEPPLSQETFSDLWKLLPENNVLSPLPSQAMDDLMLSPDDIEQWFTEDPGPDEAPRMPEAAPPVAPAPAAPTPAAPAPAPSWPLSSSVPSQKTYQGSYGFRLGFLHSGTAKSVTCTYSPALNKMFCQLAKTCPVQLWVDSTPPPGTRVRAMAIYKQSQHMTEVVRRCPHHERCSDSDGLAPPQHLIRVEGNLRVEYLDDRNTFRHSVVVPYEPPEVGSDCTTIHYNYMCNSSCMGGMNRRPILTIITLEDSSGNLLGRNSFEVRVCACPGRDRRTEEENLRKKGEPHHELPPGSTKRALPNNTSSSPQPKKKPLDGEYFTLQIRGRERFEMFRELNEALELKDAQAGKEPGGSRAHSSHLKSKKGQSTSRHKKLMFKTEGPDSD

[12] = test system: HCT-116; test: Induction of apoptosis in human HCT116 cells assessed as late apoptotic cells at 5 uM after 72 hrs by Annexin V-FITC/propidium iodide staining-based flow cytometric analysis (reference value: 1.08%); format: functional
[13] = test system: BEAS-2B; test: Antiproliferative activity against human BEAS2B cells after 72 hrs by MTT assay; format: functional, cell-based
[14] = test system: HCT-116; test: Disruption of mitochondrial membrane potential in human HCT116 cells assessed as collapse of mitochondrial membrane potential at 5 uM after 72 hrs by JC1 staining-based flow cytometry method (reference value: […]); format: functional
[15] = target: Cellular tumor antigen p53 (Homo sapiens) (UniProt P04637); test: Activation of p53 in human HCT116 cells assessed as increase in caspase-9 level up to 5 uM after 48 hrs by Western blot analysis; format: cell-based
[16] = test system: HCT-116; test: Antiproliferative activity against human HCT116 cells after 72 hrs by MTT assay; format: functional, cell-based; conditions: HCT-116, 72 h
[17] = test system: HCT-116; test: Cytotoxicity against human HCT116 cells pretreated with Na+ followed by compound addition up to 5 uM measured after 72 hrs by MTT assay; format: functional, cell-based
[18] = test system: HCT-116; test: Induction of apoptosis in human HCT116 cells assessed as necrotic cells at 0.31 uM after 72 hrs by Annexin V-FITC/propidium iodide staining-based flow cytometric analysis (reference value: 0.76%); format: functional
[19] = test system: HCT-116; test: Induction of intracellular ROS generation in human HCT116 cells at 5 uM after 72 hrs by DCF-DA-dye based fluorescence microscopy (reference value: 2.74%); format: functional
[20] = test system: HCT-116; test: Induction of lipid peroxidation in human HCT116 cells assessed as increase in MDA levels up to 5 uM; format: functional
[21] = test system: HCT-116; test: Cytotoxicity in human HCT116 cells pretreated with Fe2+ followed by compound addition up to 5 uM measured after 72 hrs by MTT assay; format: functional, cell-based
[22] = test system: HCT-8; test: Antiproliferative activity against human HCT8 cells after 72 hrs by MTT assay; format: functional, cell-based; conditions: HCT-8, 72 h
[23] = test system: HCT-116; test: Cytotoxicity in human HCT116 cells pretreated with Fe3+ followed by compound addition up to 5 uM measured after 72 hrs by MTT assay; format: functional, cell-based
[24] = test system: HCT-116; test: Effect on caspase-8 expression in human HCT116 cells up to 5 uM after 48 hrs by Western blot analysis; format: functional, cell-based
[25] = test system: HCT-116; test: Cytotoxicity against human HCT116 cells transfected with p53-siRNA up to 5 uM after 72 hrs by MTT assay; format: functional, cell-based
[26] = test system: Mus musculus; test: Toxicity in BALB/c nude mouse xenografted with human HCT116 cells assessed as abnormality in kidney at 10 to 20 mg/kg, iv administered once per day by hematoxylin and eosin staining-based microscopic method; format: organism-based; conditions: in vivo
[27] = test system: HCT-116; test: Disruption of mitochondrial membrane potential in human HCT116 cells assessed as intact mitochondrial membrane at 0.31 uM after 72 hrs by JC1 staining-based flow cytometry method (reference value: 0.33%); format: functional
[28] = Antiproliferative activity against human CCD-841 cells after 72 hrs by MTT assay; format: cell-based; conditions: CCD-841, 72 h
[29] = test system: HCT-116; test: Antitumor activity against human HCT116 cells xenografted in BALB/c nude mouse assessed as decrease in tumor weight at 20 mg/kg, iv administered once per day for 14 days and measured every 2 days; format: functional; set-up: scale not given: the % may be the effect or the level left
[30] = test system: Bel-7402; test: Antiproliferative activity against human Bel7402 cells after 72 hrs by MTT assay; format: functional, cell-based; conditions: Bel-7402, 72 h

Compound: CC(=O)N[C@H]1[C@H](O[C@H]2CC[C@]3(C)[C@H]4CC=C5[C@@H]6CC(C)(C)CC[C@]6(C(=O)OCc6cn(-c7cccc(C(C)=O)c7)nn6)CC[C@@]5(C)[C@]4(C)CC[C@H]3C2(C)C)O[C@H](CO[C@@H]2OC[C@H](O)[C@H](O)[C@@H]2O)[C@@H](O)[C@@H]1O
- Activity [1]: 26.18%
- Activity [2]: 1.86%
- Activity [3]: Dose-dependent effect
- viability at 5 µM [4]: 38.5%
- IC50 [5]: 33.2 µM
- viability at 1.25 µM [6]: 65.1%
- Activity [7]: inactive
- Activity [8]: 12.87%
- Activity [9]: Active
- Activity [10]: inactive
- Activity [11]: Active
- Activity [12]: 20.33%
- IC50 [13]: 20.2 µM
- Activity [14]: 59.87%
- Activity [15]: Active
- IC50 [16]: 5.19 µM
- Activity [17]: Active
- Activity [18]: 2.62%
- Activity [19]: 29.71%
- fold change (FC) [20]: >2
- Activity [21]: Active
- IC50 [22]: 6.78 µM
- Activity [23]: Active
- Activity [24]: inactive
- Activity [25]: inactive
- Activity [26]: Non-Toxic
- Activity [27]: 10.97%
- IC50 [28]: 27.8 µM
- Activity [29]: 71.8%
- IC50 [30]: 5.21 µM
